Columns and labels:
[1] = Comparative zinc bioavailability: growth parameters and zinc levels in blood and tibia ash of broilers; settings: for Relative Biological Availability (%): Ending body weight (lbs) 21 days / Relative Biological Availability (%): Body weight gain (lbs) 21 days: broilers fed 21 days; for Relative Biological Availability (%): Ending body weight (lbs) 21 days: relative to zinc sulfate arbitrarily set at 100%, superscripts: means in a row without common superscript differ (P < 0.05, LSD)
Experimental: Each zinc treatment was replicated eight times and each pen contained ten male birds.
Basal feeds and zinc compound were mixed in a horizontal feed mixer providing the desired ingredient composition as shown in Table 4. The broilers were fed the rations for 21 days. Feed weights were taken during the trial. Body weights were measured at the beginning and at the end of the trial. On day 21, zinc levels in the blood and tibia ash were determined. The assay procedures for total tibia zinc content or concentration to assess zinc utilization are similar to those used by Wedekind et al., J. Anim. Sci., 70:178-187 (1992). The data were analyzed according to the SAS statistical package.
Chick growth parameters and zinc levels in the blood and tibia ash were used as criteria to determine the biological availability of zinc. […] The biological availability of zinc sulfate was arbitrarily set at 100%.

[2] = cited from earlier work
[3] = relative to zinc sulfate set at 100%, superscripts: P < 0.05, LSD
[4] = broilers, relative to zinc sulfate set at 100%, superscripts: P < 0.05, LSD
[5] = broilers, day 21, relative to zinc sulfate set at 100%, superscripts: P < 0.05, LSD

| Structure (SMILES) | Relative Biological Availability (%): Ending body weight (lbs) 21 days [1] | Relative Biological Availability (%): Body weight gain (lbs) 21 days [1, 3] | Relative Biological Availability (%): Feed conversion (corr.) 3-21 days [1, 4] | Relative Biological Availability (%): Bone ash (%) 21 days [1, 5] | Relative Biological Availability (%): Plasma Zinc (μg/ml) ([1]; chicken, in vivo, 30240 min) | Relative Biological Availability (%): Tibia ash zinc (μg/g) ([1]; chicken, in vivo, 30240 min) | solubility in water [2] | ending body weights compared with zinc sulfate ([1]; both the 10 mg/kg and 20 mg/kg levels) | Relative Biological Availability (%): Plasma Zinc (μg/ml) ([1]; broilers, day 21, plasma, relative to zinc sulfate set at 100%, superscripts: P < 0.05, LSD) | Relative Biological Availability (%): Tibia ash zinc (μg/g) ([1]; broilers, day 21, tibia ash, relative to zinc sulfate set at 100%, superscripts: P < 0.05, LSD) | levels of zinc in the blood and tibia ash on day 21 ([1]; day 21, zinc propionate versus zinc methionine) |
| --- | --- | --- | --- | --- | --- | --- | --- | --- | --- | --- | --- |
| O=S(=O)([O-])[O-].[Zn+2] [Sulfate, zinc sulfate, reference compound] | 100.00% | 100.00% | 100.00% | 100.00% | 100.00% | 100.00% |  |  |  |  |  |
| [O]=[Zn] [Zinc oxide, zinc oxide] |  |  |  |  |  |  | 0.00016 g/100 ml |  |  |  |  |
| CSCC[C@H](N)C(=O)O.O=S(=O)([O-])O.O=S(=O)([O-])O.[Zn+2] [Zinpro ®, Zinc methionine bisulfate] | 132.46% | 131.52% | 90.38% | 113.95% |  |  |  | statistically significant higher ending body weights | 124.00% | 123.99% | comparable levels of zinc |

Reference: patent US5795615A, “Process for producing metal carboxylates for use as animal feed supplements” (priority 1995, dated 1998)
